Measured values: ChEMBL document CHEMBL2311532, “Identification of benzofuran central cores for the inhibition of leukotriene A(4) hydrolase” (Bioorg Med Chem Lett, 2013)
Blank lines part the entries; values can stand above or below the molecule they belong to.

Tests used:
[1] = target: T1, Leukotriene A-4 hydrolase (Homo sapiens, UniProt P09960); test: Inhibition of recombinant human LTA4H expressed in Sf9 cells using LTA4 as substrate incubated for 10 mins prior to substrate addition measured after 10 to 30 mins by enzyme immunoassay
T1 sequence (P09960 whole entry): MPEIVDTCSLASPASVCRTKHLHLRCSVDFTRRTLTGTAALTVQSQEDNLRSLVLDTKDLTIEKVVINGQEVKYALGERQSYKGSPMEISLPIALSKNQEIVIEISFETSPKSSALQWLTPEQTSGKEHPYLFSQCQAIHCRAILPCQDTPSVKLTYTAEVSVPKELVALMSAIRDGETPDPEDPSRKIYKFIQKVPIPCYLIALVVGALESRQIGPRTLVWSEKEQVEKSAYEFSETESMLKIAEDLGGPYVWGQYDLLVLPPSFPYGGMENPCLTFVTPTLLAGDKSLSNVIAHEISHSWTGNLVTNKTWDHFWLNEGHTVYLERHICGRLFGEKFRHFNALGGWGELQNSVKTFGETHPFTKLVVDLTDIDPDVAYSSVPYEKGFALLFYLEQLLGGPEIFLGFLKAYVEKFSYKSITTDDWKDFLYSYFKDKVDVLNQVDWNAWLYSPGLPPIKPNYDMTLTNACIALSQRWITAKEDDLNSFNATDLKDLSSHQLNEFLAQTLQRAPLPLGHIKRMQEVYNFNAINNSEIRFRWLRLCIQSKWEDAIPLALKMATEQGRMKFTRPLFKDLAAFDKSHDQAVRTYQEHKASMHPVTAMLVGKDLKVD

[2] = target: T2, Leukotriene A-4 hydrolase (Mus musculus, UniProt P24527); test: Inhibition of LTA4H in CD1 mouse whole blood assessed as decrease in calcium ionophore-stimulated LTB4 production incubated for 15 mins prior to calcium ionophore challenge measured after 10 to 30 mins by enzyme immunoassay
T2 sequence (P24527 whole entry): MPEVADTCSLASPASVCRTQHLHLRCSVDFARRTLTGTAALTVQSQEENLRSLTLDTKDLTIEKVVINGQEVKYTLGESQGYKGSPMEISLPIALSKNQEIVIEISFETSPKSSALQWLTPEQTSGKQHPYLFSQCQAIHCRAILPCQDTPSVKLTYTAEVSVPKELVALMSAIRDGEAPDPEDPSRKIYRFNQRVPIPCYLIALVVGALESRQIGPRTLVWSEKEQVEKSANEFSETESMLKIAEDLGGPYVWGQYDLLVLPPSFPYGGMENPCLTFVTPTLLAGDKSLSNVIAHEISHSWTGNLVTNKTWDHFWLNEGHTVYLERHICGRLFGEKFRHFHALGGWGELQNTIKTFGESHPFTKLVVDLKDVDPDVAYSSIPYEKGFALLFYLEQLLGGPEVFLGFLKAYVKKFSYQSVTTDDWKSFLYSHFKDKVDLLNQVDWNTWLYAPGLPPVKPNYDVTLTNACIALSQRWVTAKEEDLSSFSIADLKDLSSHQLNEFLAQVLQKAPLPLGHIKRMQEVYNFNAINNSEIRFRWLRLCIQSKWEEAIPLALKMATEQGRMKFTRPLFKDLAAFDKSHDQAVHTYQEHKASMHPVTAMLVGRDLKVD

[3] = Clearance in Sprague-Dawley rat at 3 mg/kg, iv and 10 mg/kg, po; assay type: ADME, organism-based; conditions: in vivo
[4] = target: T1, Leukotriene A-4 hydrolase; test: Inhibition of LTA4H in human whole blood assessed as decrease in LTB4 production
[5] = Oral bioavailability in Sprague-Dawley rat at 10 mg/kg; assay type: ADME, organism-based; conditions: in vivo
Mus musculus [6] = test: Inhibition of LTA4H in po dosed Balb/c mouse assessed as decrease in calcium ionophore-stimulated LTB4 production in blood administered for 4 hrs prior to calcium ionophore challenge measured after 10 to 30 mins by enzyme immunoassay; assay type: functional
[7] = Half life in Sprague-Dawley rat at 3 mg/kg, iv and 10 mg/kg, po; assay type: ADME, organism-based; conditions: in vivo
Mus musculus [8] = test: Inhibition of LTA4H in po dosed Balb/c mouse assessed as concentration required to decrease calcium ionophore-stimulated LTB4 production in blood administered for 4 hrs prior to calcium ionophore challenge measured after 10 to 30 mins by enzyme immunoassay; assay type: functional, organism-based
[9] = Volume of distribution at steady state in Sprague-Dawley rat at 3 mg/kg, iv and 10 mg/kg, po; assay type: ADME, organism-based; conditions: in vivo, read-out: Vdss

Structure (SMILES): CC(=O)NC1CCN(Cc2coc3cc(Oc4nc5ncccc5s4)ccc23)CC1
IC50 [1]: 3.7 nM | IC50 [2]: 17 nM

Structure (SMILES): CC(=O)N1CC2CC1CN2Cc1cc2cc(Oc3nc4cnccc4s3)ccc2o1 (centres undefined)
IC50 [1]: 340 nM

Structure (SMILES): CC(=O)N1CC2CC1CN2Cc1cc2ccc(Oc3nc4ncccc4s3)cc2o1 (centres undefined)
IC50 [1]: 62 nM | IC50 [2]: 210 nM

Structure (SMILES): c1cnc2nc(Oc3ccc4cc(CN5CCCCC5)oc4c3)sc2c1
IC50 [1]: 51 nM | IC50 [2]: 140 nM

Structure (SMILES): CC(=O)N[C@H]1C[C@H]2CC[C@@H](C1)N2Cc1coc2cc(Oc3nc4ncccc4s3)ccc12
IC50 [1]: 1.6 nM | IC50 [2]: 9.8 nM

Structure (SMILES): CC(=O)N[C@H]1C[C@H]2CC[C@@H](C1)N2Cc1coc2cc(Oc3nc4ccccc4s3)ccc12
IC50 [1]: 7.3 nM | IC50 [2]: 69 nM

Structure (SMILES): c1cnc2nc(Oc3ccc4c(CN5CCOCC5)coc4c3)sc2c1
IC50 [1]: 25 nM | IC50 [2]: 49 nM

Structure (SMILES): CC(=O)N1CC2CC1CN2Cc1cc2cc(Oc3nc4cccnc4s3)ccc2o1 (centres undefined)
IC50 [1]: 340 nM

Structure (SMILES): O=C(O)C1CCN(Cc2coc3cc(Oc4nc5ncccc5s4)ccc23)CC1
IC50 [1]: 8.3 nM | IC50 [2]: 280 nM

Structure (SMILES): O=C(O)C1CCN(Cc2coc3cc(Oc4nc5ccccc5s4)ccc23)CC1
IC50 [1]: 14 nM | IC50 [2]: 19 nM

Structure (SMILES): CC(=O)N1CC2CC1CN2Cc1coc2cc(Oc3nc4ncccc4s3)ccc12 (centres undefined)
IC50 [1]: 7.3 nM | IC50 [2]: 21 nM

Structure (SMILES): CC(=O)N1CC2CC1CN2Cc1cc2cc(Oc3nc4ncccc4s3)ccc2o1 (centres undefined)
IC50 [1]: 7 nM | IC50 [2]: 27 nM

Structure (SMILES): CC(=O)NC1CCN(Cc2coc3cc(Oc4nc5ccccc5s4)ccc23)CC1
IC50 [1]: 26 nM | IC50 [2]: 100 nM

Structure (SMILES): c1ccc2sc(Oc3ccc4cc(CN5CCCCC5)oc4c3)nc2c1
IC50 [1]: 430 nM

Structure (SMILES): CC(=O)N1CC2CC1CN2Cc1coc2cc(Oc3nc4cccnc4s3)ccc12 (centres undefined)
IC50 [1]: 300 nM

Structure (SMILES): c1cnc2nc(Oc3ccc4c(CN5CCCCC5)coc4c3)sc2c1
IC50 [1]: 4.6 nM | IC50 [2]: 21 nM

Structure (SMILES): CC(=O)N1CC2CC1CN2Cc1cc2ccc(Oc3nc4cccnc4s3)cc2o1 (centres undefined)
IC50 [1]: 2130 nM

Now from value to molecule, other results behind:

IC50 [1]: 66 nM | IC50 [2]: 91 nM
Structure (SMILES): c1cnc2nc(Oc3ccc4oc(CN5CCCCC5)cc4c3)sc2c1

IC50 [1]: 330 nM
Structure (SMILES): c1ccc2sc(Oc3ccc4oc(CN5CCCCC5)cc4c3)nc2c1

IC50 [1]: 7.3 nM | IC50 [2]: 21 nM
Structure (SMILES): CC(=O)N1C[C@@H]2C[C@H]1CN2Cc1coc2cc(Oc3nc4ncccc4s3)ccc12

IC50 [1]: 67 nM | IC50 [2]: 420 nM
Structure (SMILES): c1ccc2sc(Oc3ccc4c(CN5CCCCC5)coc4c3)nc2c1

IC50 [1]: 58 nM | IC50 [2]: 230 nM
Structure (SMILES): O=C1CCCN1C1CCN(Cc2coc3cc(Oc4nc5ccccc5s4)ccc23)CC1

clearance [3]: 11.7 mL/min/kg | IC50 [4]: 61 nM | bioavailability [5]: 61% | inhibition (Mus musculus [6]): Dose-dependent effect | IC50 [2]: 21 nM | half-life [7]: 2.5 h | EC50 (Mus musculus [8]): 3 nM | Vd [9]: 1.6 L/kg
Structure (SMILES): O=C1CCCN1C1CCN(Cc2coc3cc(Oc4nc5ncccc5s4)ccc23)CC1
ED50 (Mus musculus [6]): 0.3 mg/kg

IC50 [1]: 140 nM | IC50 [2]: 1120 nM
Structure (SMILES): c1ccc2sc(Oc3ccc4c(CN5CCOCC5)coc4c3)nc2c1

clearance [3]: 8.33 mL/min/kg | bioavailability [5]: 29% | half-life [7]: 0.9 h | EC50 (Mus musculus [8]): 72 nM | Vd [9]: 1.1 L/kg
Structure (SMILES): O=C1CCCN1C1CCN(CCOc2ccc(Oc3nc4ccccc4s3)cc2)CC1
ED50 (Mus musculus [6]): 10 mg/kg

IC50 [1]: 2370 nM
Structure (SMILES): CC(=O)N1CC2CC1CN2Cc1cc2ccc(Oc3nc4cnccc4s3)cc2o1 (centres undefined)

IC50 [1]: 34 nM | IC50 [2]: 250 nM
Structure (SMILES): CC(=O)N1C[C@@H]2C[C@H]1CN2Cc1coc2cc(Oc3nc4ccccc4s3)ccc12

IC50 [1]: 340 nM
Structure (SMILES): CC(=O)N1CC2CC1CN2Cc1coc2cc(Oc3nc4cnccc4s3)ccc12 (centres undefined)
